Assay in all cases: growth of human tumour cells (NCI), 48 h
Assay [1] relates to SF-268 CNS.
The test system of assay [2] is SF-539 CNS.
In assay [3] the test system is RXF 393 renal.
The subject of assay [4] is HCT-116 colon.
Assay [5] has as its system 786-0 renal.
Assay [6] concerns UO-31 renal.
The subject of assay [7] is COLO 205 colon.
The subject of assay [8] is NCI-H226 lung.
The test system of assay [9] is A549 NSCLC.
Assay [10] concerns SR leukemia.

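Growth conditions: 96-well plates. Treatment: test compound, 48 hours, 5 concentrations. Analysis: linear interpolation between bracketing concentrations; unreached endpoints set to highest concentration. The concentration for 50% growth inhibition is given as GI50. TGI denotes the concentration required for complete inhibition of growth.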 Where only a bound is given, the exact number is not on record here.

Take `COc1cc2ccnc3c2c(c1OC)-c1ccc(=O)ccc1-3`: the GI50 in [1] was 39.1 µM; in [2] it was 15.9 µM; in assay [3] it was 18.7 µM; in assay [4], 5.25 µM; in assay [5], 22.4 µM; in [6] it was 30 µM. The GI50 in assay [7] is 35.2 µM; in assay [8] it was 17.7 µM; in assay [9], 18.2 µM; in assay [10] it was 2.95 µM. For the same molecule, the TGI in assay [1] was over 100 µM; in [2], 77.3 µM; in [3], 77 µM; in [4], 34.5 µM; in [5], over 100 µM; in assay [6] it was over 100 µM. For the same molecule, the TGI in assay [7] was determined as 97.8 µM; in assay [8], 45.8 µM; in assay [9], 55.4 µM; in assay [10], 21.4 µM.

For `Nc1ccn(C2CC(O)C(CO)O2)c(=O)n1` (stereo not given), the GI50 in assay [1], in [2], in [3], in [4], in assay [5] and in assay [6] was over 5000 µM each time. The GI50 in assay [7], in assay [8], in assay [9] and in assay [10] was over 5000 µM each time. The TGI in assay [1], in assay [2], in assay [3], in [4], in assay [5] and in assay [6] was over 5000 µM each time. For the same molecule, the TGI in assay [7], in assay [8], in assay [9] and in assay [10] was over 5000 µM in each case.

`CC1(C)N=C(N)N=C(N)N1c1cccc(CCCCc2ccccc2)c1`: the GI50 in assay [1] is 0.0735 µM; in assay [2], 0.212 µM; in assay [3], 2.28 µM; in [4] it was 0.0501 µM; in assay [5], 0.518 µM; in assay [6], 10.2 µM. Moreover, the GI50 in [7] was 0.448 µM; in assay [8], 2.35 µM; in assay [9] it was 0.0382 µM; in assay [10], 0.188 µM. For the same molecule, the TGI was 15 µM in assay [1]; 7.39 µM in assay [2]; 17.2 µM in [3]; 17 µM in [4]; 16.4 µM in assay [5]; 32 µM in assay [6]. The TGI turned out to be 2.36 µM in assay [7], 24.5 µM in [8], 1.35 µM in assay [9] and 2.89 µM in assay [10].

Consider `C/C1=C\C/C=C(\C)[C@H]2CC(CC/C(C)=C/CC1)[C@@](C)(CO)O2`, for which the GI50 in assay [1] was 80.6 µM; in assay [2] it was over 100 µM; in [3], over 100 µM; in assay [4], 44.5 µM; in [5], over 100 µM; in assay [6], 21.7 µM. The GI50 is over 100 µM in [7], over 100 µM in assay [8], over 100 µM in assay [9] and 14.6 µM in assay [10]. The TGI is over 100 µM in [1]; over 100 µM in [2]; over 100 µM in assay [3]; over 100 µM in assay [4]; over 100 µM in assay [5]; 89.9 µM in assay [6]. The TGI in assay [7] was over 100 µM; in assay [8] it was over 100 µM; in assay [9] it was over 100 µM; in assay [10], 43.8 µM.

These data come from PubChem BioAssay (NCI).
